In patent US20230013669A1, “Antibacterial Treatment Using a Cannabinoid and an Active Agent” (priority 2019, published 2023):
In brackets after ≈: the same amount, converted by molar mass. Several values for one entry are separate records, joined by “and”; a condition that tells them apart may be missing. Identical values can stand only once. Counter-ions that a name gives are not always drawn. Like-named read-outs stand apart in the source and are kept apart here. Residues, ends and D or L forms follow the SMILES beside them.

How the values were obtained:
Type in all cases: cell-based
[1] = tested on: Pseudomonas aeruginosa ATCC 27853 (GN_042); assay: MIC micro-broth dilution assay (Example 1 method); conditions: for MIC: Pseudomonas aeruginosa
Protocol: (§6) The plates were covered and incubated at 37° C. for 18-20 h.
(§7) Optical density was read at 600 nm (OD600) using Tecan M1000 Pro Spectrophotometer. […] Analysis was performed using Microsoft Excel.

[2] = tested on: Escherichia coli ATCC 25922 (GN_001); assay: MIC micro-broth dilution assay (Example 1 method); conditions: for MIC: Escherichia coli
Protocol: as §6, §7

[3] = tested on: Klebsiella pneumoniae ATCC 13883 (GN_003 / GN_004); assay: MIC micro-broth dilution assay (Example 1 method); conditions: for MIC: Klebsiella pneumoniae
Protocol: as §6, §7

[4] = tested on: Acinetobacter baumannii ATCC 19606 (GN_034); assay: MIC micro-broth dilution assay (Example 1 method); conditions: for MIC: Acinetobacter baumannii
Protocol: as §6, §7

[5] = tested on: Klebsiella pneumoniae ATCC 700603; assay: microbe, parasite or virus in culture
Protocol: (§1) The inoculum was then diluted in CaMHB to give a mid-log phase cultures and 40 μL was added to each well from column 1 to column 18, and column 23. 45 μL of the inoculum was added to each well from column 19 to column 22 to give the final cell density of 5×10^5 CFU/mL. The plates were incubated at 37° C. for 18-20h.
(§2) Optical density was read at 600 nm (OD600) using Gen5 Spectrophotometer. […] Analysis was performed using Microsoft Excel.

[6] = tested on: Acinetobacter baumannii ATCC 19606; assay: microbe, parasite or virus in culture
Protocol: as §1, §2

[7] = tested on: Escherichia coli ATCC 25922; assay: microbe, parasite or virus in culture
Protocol: as §1, §2

[8] = tested on: Pseudomonas aeruginosa ATCC 27853; assay: microbe, parasite or virus in culture
Protocol: as §1, §2

[9] = tested on: Acinetobacter baumannii ATCC 19606 Type Strain (GN_034); assay: MIC broth microdilution, 96-well, visual reading (Example 11); conditions: GN_034, n=4 replicates; for MIC: Acinetobacter baumannii, ATCC19606, read-out: MIC (Test results), Example 11 Table 41; for MIC (Test results): Example 11 Table 41
Protocol: (§3) The experiment was performed to investigate the antimicrobial activity of cannabidiol (CBD) against an LPS deficient strain (GN_237 Acinetobacter baumannii, IpxA mutant; Lipid A deficient; obtained by colistin selection from base strain ATCC 19606) and its parent strain (GN_034, Acinetobacter baumannii, ATCC 19606).
(§4) All plates had flat bottom wells and were covered with low-evaporation lids.
(§5) Two biological replicates ×2 technical replicates were conducted on separate days (final n=4). Inhibition of bacterial growth was determined visually, where the MIC was recorded as the lowest compound concentration with no visible growth.

[10] = tested on: Acinetobacter baumannii AL1851, IpxA mutant; Lipid A deficient (GN_237); assay: as above; conditions: for MIC: Acinetobacter baumannii, read-out: MIC (Test results), Example 11 Table 41; for MIC / MIC (Test results): GN_237, n=4 replicates; for MIC (Test results): Example 11 Table 41
Protocol: as §3, §4, §5

[11] = tested on: Klebsiella pneumoniae ATCC 700603; assay: MIC micro-broth dilution assay (Example 1 method); conditions: for MIC: Klebsiella pneumoniae
Protocol: Methods were as for Example 1. Cannabidiol was tested in combination with cefotetan.
Methods were as for Example 1. Cannabidiol was tested in combination with aztreonam.
Methods were as for Example 1. Cannabidiol was tested in combination with cefepime.
Methods were as for Example 1. Cannabidiol was tested in combination with octapeptin C4.
Methods were as for Example 1. Cannabidiol was tested in combination with Spero SPR206. The experiments were carried out three times.

[12] = Pseudomonas aeruginosa ATCC 27853
[13] = Example 10 Table 38, compound alone, replicates
[14] = Klebsiella pneumoniae ATCC 700603
[15] = Acinetobacter baumannii ATCC 19606

CC1(C)S[C@@H]2[C@H](NC(=O)[C@H](C(=O)O)c3ccsc3)C(=O)N2[C@H]1C(=O)O [Ticarcillin]
MIC of Ticarcillin [1, 12]: 16 µg/mL | MIC ([1]; ATCC27853, read-out: MIC of Ticarcillin, Pseudomonas aeruginosa ATCC 27853): 32 µg/mL | MIC ([2]; ATCC25922, read-out: MIC of Ticarcillin): 8 µg/mL | MIC ([3]; ATCC 13883 / ATCC 700603, read-out: MIC of Ticarcillin): 128 µg/mL | MIC ([4]; ATCC19606, read-out: MIC of Ticarcillin): 4 µg/mL

CC(C)C[C@@H]1NC(=O)[C@@H](Cc2ccccc2)NC(=O)[C@H](CCN)NC(=O)[C@@H](NC(=O)[C@H](CCN)NC(=O)[C@@H](N)[C@@H](C)O)CCNC(=O)[C@H]([C@@H](C)O)NC(=O)[C@H](CCN)NC(=O)[C@H](CCN)NC1=O [PMBN] (HELM PEPTIDE1{T.[Dab].[Dab].[Dab].[dF].L.[Dab].[Dab].T}$PEPTIDE1,PEPTIDE1,3:R3-9:R2$$$V2.0; N-terminus assumed; bridges inferred)
antimicrobial activity alone ([5]; Example 10): poor antimicrobial activity | MIC [5, 13]: >32 µg/mL | MIC of PMBN ([5]; Example 10 Table 39): >32 µg/mL | antimicrobial activity alone ([6]; Example 10): poor antimicrobial activity | MIC [6, 13]: >32 µg/mL | MIC of PMBN ([6]; Example 10 Table 39): >32 µg/mL | antimicrobial activity alone ([7]; Example 10): poor antimicrobial activity | MIC [7, 13]: >32 µg/mL | MIC of PMBN ([7]; Example 10 Table 39): >32 µg/mL | antimicrobial activity alone ([8]; Example 10): poor antimicrobial activity | MIC [8, 13]: >32 µg/mL | MIC of PMBN ([8]; Example 10 Table 39): >32 µg/mL

CCC[C@@H]1C[C@@H](C(=O)N[C@@H]([C@H]2O[C@H](SC)[C@H](O)[C@@H](O)[C@H]2O)[C@H](C)Cl)N(C)C1 [Clindamycin hydrochloride monohydrate]
MIC [9]: 128 µg/mL | MIC (Test results) [9]: 128 μg/mL (2×) and >128 μg/mL | MIC [10]: 4 µg/mL | MIC (Test results) [10]: 4 μg/mL and 8 μg/mL (2×)

Colistin Sulfate
MIC (Test results) [9]: 1 µg/mL | MIC (Test results) [10]: >128 μg/mL (2×) and 128 μg/mL (2×)

CC(C)(O/N=C(\C(=O)N[C@@H]1C(=O)N2C(C(=O)[O-])=C(C[n+]3ccccc3)CS[C@H]12)c1csc(N)n1)C(=O)O [Ceftazidime]
MIC of Ceftazidime [1, 12]: 4 µg/mL | MIC ([1]; ATCC27853, read-out: MIC of Ceftazidime): 4 µg/mL | MIC of Ceftazidime ([2]; Escherichia coli ATCC 25922): 0.062 µg/mL | MIC ([2]; ATCC25922, read-out: MIC of Ceftazidime, Escherichia coli ATCC 25922): 0.06 µg/mL | MIC of Ceftazidime [3, 14]: 128 µg/mL | MIC ([3]; ATCC 13883 / ATCC 700603, read-out: MIC of Ceftazidime, Klebsiella pneumoniae ATCC 700603): 64 µg/mL | MIC of Ceftazidime [4, 15]: 4 µg/mL | MIC ([4]; ATCC19606, read-out: MIC of Ceftazidime, Acinetobacter baumannii ATCC 19606): 4 µg/mL

Gentamycin
MIC (Test results) [9]: 32 μg/mL (2×) and 64 μg/mL (2×) | MIC (Test results) [10]: 1 μg/mL (2×) and 2 μg/mL and 0.5 μg/mL

Teicoplanin
MIC (Test results) [9]: >128 µg/mL | MIC (Test results) [10]: 0.25 μg/mL (2×) and 0.5 μg/mL

CO/N=C(\C(=O)N[C@@H]1C(=O)N2C(C(=O)O)=C(COC(N)=O)CS[C@H]12)c1ccco1 [Cefuroxime]
MIC ([1]; ATCC27853, read-out: MIC of Cefuroxime): 256 µg/mL | MIC ([2]; ATCC25922, read-out: MIC of Cefuroxime, Escherichia coli ATCC 25922): 2 µg/mL | MIC ([3]; ATCC 13883 / ATCC 700603, read-out: MIC of Cefuroxime, Klebsiella pneumoniae ATCC 700603): 16 µg/mL | MIC ([4]; ATCC19606, read-out: MIC of Cefuroxime, Acinetobacter baumannii ATCC 19606): 64 µg/mL | MIC ([4]; ATCC19606, read-out: MIC of cefuroxime, Example 2 Table 8, GN_034): 64 µg/mL | MIC ([4]; ATCC19606, read-out: Minimum Inhibitory Concentration (MIC), Example 2 Table 7, GN_034, compound alone, replicates): > 32 µg/mL | Minimum Inhibitory Concentration (MIC) ([4]; Example 2 Table 7, GN_034, compound alone, replicates, listed as MCC_009386): >32 μg/mL and 64 μg/mL (2×)

CC(=O)N[C@H](C(=O)N[C@H](CO)C(=O)N[C@H]1CCNC(=O)[C@H]([C@@H](C)O)NC(=O)[C@H](CCN)NC(=O)[C@H](CCN)NC(=O)[C@H](CC(C)C)NC(=O)[C@@H](Cc2ccccc2)NC(=O)[C@H](CCN)NC1=O)[C@@H](C)O [Spero Potentiator SPR741] (HELM PEPTIDE1{[ac].T.[dS].[Dab].[Dab].[dF].L.[Dab].[Dab].T}$PEPTIDE1,PEPTIDE1,4:R3-10:R2$$$V2.0)
MIC of Spero Potentiator SPR741 ([1]; Pseudomonas aeruginosa ATCC 27853, alone): 64.00 µg/mL and 64 µg/mL | MIC of Spero Potentiator SPR741 ([2]; Escherichia coli ATCC 25922, alone): 64 µg/mL and 128 µg/mL | MIC of Spero Potentiator SPR741 ([3]; Klebsiella pneumoniae ATCC 700603 (so in the source), alone): >128 µg/mL and >64 µg/mL | MIC of Spero Potentiator SPR741 ([4]; Acinetobacter baumannii ATCC 19606, alone): >128 µg/mL and >64 µg/mL

CO[C@@]1(NC(=O)C2SC(=C(C(N)=O)C(=O)O)S2)C(=O)N2C(C(=O)O)=C(CSc3nnnn3C)CS[C@@H]21 (stereo partly shown) [Cefotetan]
MIC of Cefotetan ([11]; Cefotetan alone): 1 µg/mL | MIC ([11]; ATCC700603, read-out: MIC of Cefotetan, Cefotetan alone): 0.5 µg/mL | MIC of Cefotetan ([1]; Cefotetan alone): 256 µg/mL | MIC ([1]; ATCC27853, read-out: MIC of Cefotetan): 256 µg/mL | MIC ([2]; ATCC25922, read-out: MIC of Cefotetan, Cefotetan alone): 0.25 µg/mL | MIC ([2]; ATCC25922, read-out: MIC of Cefotetan, Escherichia coli ATCC 25922): 0.25 µg/mL | MIC ([4]; ATCC19606, read-out: MIC of Cefotetan, Acinetobacter baumannii ATCC 19606): 256 µg/mL | MIC ([4]; ATCC19606, read-out: MIC of Cefotetan, Cefotetan alone): 256 µg/mL

C[C@H]1[C@H](NC(=O)/C(=N\OC(C)(C)C(=O)O)c2csc(N)n2)C(=O)N1S(=O)(=O)O [Aztreonam]
MIC ([11]; ATCC700603, read-out: MIC of Aztreonam, Aztreonam alone): 64 µg/mL | MIC ([1]; ATCC27853, read-out: MIC of Aztreonam): 4 µg/mL | MIC ([4]; ATCC19606, read-out: MIC of Aztreonam, Aztreonam alone): 32 µg/mL | MIC ([4]; ATCC19606, read-out: MIC of aztreonam, Example 5 Table 20, GN_034): 32 µg/mL | MIC ([4]; ATCC19606, read-out: Minimum Inhibitory Concentration (MIC), Example 5 Table 19, GN_034, compound alone, replicates): 16 µg/mL (≈ 36.7 µM) | Minimum Inhibitory Concentration (MIC) ([4]; Example 5 Table 19, GN_034, compound alone, replicates): 16 µg/mL

C/C(=C\C(=O)OCCCCCCCCC(=O)O)C[C@@H]1OC[C@H](C[C@@H]2O[C@H]2[C@@H](C)[C@H](C)O)[C@@H](O)[C@H]1O [Mupirocin]
MIC [9]: 128 µg/mL (≈ 256 µM) | MIC (Test results) [9]: 128 µg/mL (≈ 256 µM) | MIC [10]: 32 µg/mL (≈ 63.9 µM) | MIC (Test results) [10]: 16 µg/mL (≈ 32 µM)

Colistin
MIC of Colistin [1, 12]: 1.00 µg/mL and 1 µg/mL | MIC of Colistin ([2]; Escherichia coli ATCC 25922): 0.50 µg/mL and 0.5 µg/mL | Minimum Inhibitory Concentration (MIC) ([2]; Example 3 Table 11, GN_001, compound alone, replicates, listed as MCC_000094): 0.25 μg/mL and 0.5 μg/mL and 2 μg/mL (2×) | MIC of Colistin ([2]; Example 3 Table 12, GN_001): 0.5 µg/mL | MIC of Colistin [3, 14]: 0.50 µg/mL and 0.5 µg/mL | activity alone ([10]; Example 11, Lipid A deficient GN_237): resistant | MIC of Colistin [4, 15]: 1.00 µg/mL and 1 µg/mL | Minimum Inhibitory Concentration (MIC) ([4]; Example 3 Table 11, GN_034, compound alone, replicates): 1 µg/mL | MIC of Colistin ([4]; Example 3 Table 12, GN_034): 1 µg/mL
